# Measured values published in patent US8012944B2, “Method for treating cancer using IAP antisense oligomer and chemotherapeutic agent” (Pharmascience Inc., priority 2003, dated 2011).
# Entries after “also recorded” stand apart in the source; their conditions may differ.
# How the values were obtained:
# Bcl-2 and Bax = experiment: Bcl-2:Bax ratio in H460 cells (western blot); format: cell-based, human; conditions: 1.2 μM
# Protocol: FIGS. 11A and 11B are schematic illustrations showing XIAP oligonucleotide-mediated effects on caspase activation. The effect of XIAP oligonucleotides F3, G4, or C5, or their respective RP and SC ODN controls at 1.2 μM on the expression of pro-caspase-3, PARP (both full length (116 kDa) and processed (85 kDa)) (FIG. 10A) and Bcl-2 and Bax protein levels (FIG. 10B) in transfected H460 cells compared to control is shown. Proteins expression was analyzed by western blotting. Bcl-2 and Bax protein levels were normalized to cellular actin levels and quantified by densitometry. […]
# The cells or tumor tissue samples were lysed with ice-cold lysis buffer (50 mM Tris, 150 mM NaCl, 2.5 mM EDTA, 0.1% SDS, 0.5% sodium deoxycholate, 1% NP-40, 0.02% sodium azide) containing protease inhibitors (Complete-Mini protease inhibitor tablets; Boehringer Mannheim GmBH, Mannheim, Germany). […] Protein content in the lysed extracts was determined using a detergent-compatible Bio-Rad assay (Bio-Rad Labs, Hercules, Calif.). […] Proteins were detected by enhanced chemiluminescence (ECL; Amersham Pharmacia Biotech, Buckinghamshire, England) and visualized after exposure to Kodak autoradiography film. Scanning densitometry (Molecular Dynamics, Sunnyvale, Calif.) was performed to quantify band intensities by volume/area integration. […]
# H460 cells [1] = experiment: Apoptotic flow cytometric assay (PI staining, hypo-diploid DNA content); format: cell-based, human; conditions: 1.2 μM, untreated control 16.6%
# Protocol: Cells were treated with liposome-oligonucleotide complexes for 4.5 h, and incubated for another 48 h in the medium without transfection reagent at 37° C. Following incubation, cells were harvested, washed twice with sample buffer (0.5% glucose in PBS without Ca^++ and Mg^++), and fixed in cold 70% ethanol at 4° C. for at least 18 hrs. Samples were centrifuged at 3000 rpm for 10 min, then resuspended in sample buffer containing 50 μg/ml propidium iodide (PI) and 400 U/ml RNase A. Samples were incubated for 30 min at room temperature and 30 min on ice, followed by flow cytometry analysis. EXPO Software (Applied Cytometry Systems, Sacramento, Calif.) was used to generate histograms, which were used to determine the cell cycle phase distribution after debris exclusion. The Sub G1/G0 cell fraction was considered as representative for apoptotic cells.
# H460 cells [2] = experiment: Nuclear morphology (DAPI staining); format: cell-based, human; conditions: 1.2 μM
# Protocol: Cells were treated with liposome-oligonucleotde complexes for 4.5 h, and incubated for another 48 h at 37° C. in the medium without transfection reagent or oligonucleotides. Cells were harvested and stained with 0.10 μg/ml DAP1 (4′, 6-diamidino-2-2-phenylindole) for 30 min at room temperature. Cells were placed on a glass slide, cytospun, and viewed with a Leica microscope and 40× objective lens under UV fluorescent illumination. Digital images were captured using Imagedatabase V. 4.01 Software (Leica, Germany).
# H460 tumors = experiment: Histopathology and ubiquitin immunohistochemistry of H460 tumors; format: in vivo, SCID-RAG2 mice; conditions: 15 mg/kg; day 21 or 24
# Protocol: To evaluate whether XIAP AS oligonucleotide administration results in direct tumor cell kill, we examined the histology of tumors after treatment both for morphology and ubiquitin immunostaining (FIGS. 19A and 19B). At day 21 or 24 post-tumor inoculation, tumors treated with 15 mg/kg of G4 AS oligonucleotides, SC oligonucleotides, or saline control were excised, sectioned, and stained with hematoxylin and eosin.
# The degradation of proteins is largely ubiquitin-proteasome-dependent; increased ubiquitin expression has been observed during apoptosis. Thus, we examined the ubiquitin expression in the tumors sections used for hematoxylin and eosin staining.
# Mouse tumors were collected on day 21 or 24 post-tumor inoculation and treatment. One portion of the tumor tissue was fixed in formalin. Paraffin-embedded tissues were sectioned and subjected to gross histopathology using hematoxylin and eosin staining and immunohistochemistry for ubiquitin expression. The other portion of the tumor was homogenized in lysis buffer for western blot analysis (see above).
# XIAP mRNA = XIAP mRNA knock-down in H460 cells (real-time RT-PCR / TaqMan); format: cell-based, human; conditions: 2 × 2 MBO; NCI-H460 cells, 9 hours post-transfection; relative level (mock control 1.01)
sequence,measurement,setting,value
GCTGAGTCTCCATATTGCC [G4 AS] (chemistry not given here),ratio of Bcl-2:Bax,Bcl-2 and Bax,unchanged
same,hypo-diploid DNA content of cells,H460 cells [1],40.8%
same,nuclear morphological changes characteristic of apoptosis,H460 cells [2],underwent morphological changes characteristic of apoptosis; also recorded: significant nuclear DNA condensation and fragmentation
same,tumor histology (hematoxylin and eosin),H460 tumors,increased number of dead cells
same,XIAP RNA,XIAP mRNA,0.48
